We go through 20 molecules from patent publication US10125101B2, “Indanylaminopyridylcyclopropanecarboxylic acids, pharmaceutical compositions and uses thereof” (Boehringer Ingelheim International GmbH, priority 2016, dated 2018).

≈ marks a conversion by molar mass, not a printed value. Read-outs that look alike come from different tables or passages of the source.

Data set [1] addresses cytochrome P450 2C9-isoenzyme (Homo sapiens (Human), UniProt P11712). Description: Inhibition of CYP-2C9 (diclofenac hydroxylation, human liver microsomes). It is filed as in vitro ADME. The note with it: diclofenac 10 μM, 37° C. Here is the method: (§1) All assays are carried out on a robotic system in 96 well plates. The final incubation volume contains TRIS buffer (0.1 M), MgCl2 (5 mM), human liver microsomes (0.1 mg/mL), diclofenac (10 μM) and the test compound at five different concentrations or no compound (high control) in duplicate (e.g., highest concentration 10-50 μM with subsequent serial 1:4 dilutions). Following a short preincubation period, reactions are started with the cofactor (NADPH, 1 mM) and stopped by cooling the incubation down to 8° C. and subsequently by addition of one volume of acetonitrile. An internal standard solution—the stable isotope ^13C6-hydroxydiclofenac—is added after quenching of incubations. Peak area analyte (=metabolite formed) and internal standard is determined by LC-MS/MS. The resulting peak area ratio analyte to internal standard in these incubations is compared to a control activity containing no test compound. Within each of the assay runs, the IC50 of a positive control inhibitor (sulfaphenazole) is determined.
On the technique in general: Microsomes from liver hold many membrane-bound enzymes, among them those of drug oxidation.

A further data set deals with human GPR40 receptor (Homo sapiens (Human), UniProt O14842). Briefly: IP1 accumulation measurements using the IPOne assay system. It is filed as cell-based. Here is the method: IP1 accumulation measurements using the IPOne assay system—1321N1 cells stably expressing human GPR40 receptor (Euroscreen, Belgium) are seeded 24 h before the assay in white 384-well plates in culture medium containing 10% FCS, 1% Na-Pyruvate and 400 μg/mL G418. IP1 is assayed according to the manufacturer's description (Cisbio Bioassays, France). In brief, the assay is started by substitution of the culture medium by stimulation buffer (Hepes 10 mM, CaCl2 1 mM, MgCl2 0.5 mM, KCl 4.2 mM, NaCl 146 mM, glucose 5.5 mM and LiCl 50 mM, pH 7.4). Cells are stimulated for 1 h at 37° C., 5% CO2 by addition of the compounds that are diluted in stimulation buffer containing LiCl. Assays are stopped by adding HTRF-conjugates (IP1-d2 and Anti-IP1 cryptate Tb) and lysis buffer, provided by the manufacturer. After an incubation time of 1 h at room temperature plates are measured using an EnVision™, Perkin Elmer. The obtained fluorescence ratios at 665/615 […] are then used to calculate the pEC50 values using Assay Explorer 3.3 Software (Accelrys, Inc.) by interpolation using an IP1 reference curve and subsequent sigmoidal curve fitting allowing for a variable hill slope.

Data set [2] has as its target cytochrome P450 2C8-isoenzyme (Homo sapiens (Human), UniProt P10632). Description: Inhibition of CYP-2C8 (amodiaquine deethylation, human liver microsomes). It is filed as in vitro ADME. The note with it: amodiaquine 1 μM, 37° C. Here is the method: as §1, with “microsomes (0.05” for “microsomes (0.1”, “mg/mL), amodiaquine (1” for “mg/mL), diclofenac (10”, “duplicate (e.g.” for “duplicate (e.g.,”, “isotope d5-desethylamodiaquine—is” for “isotope ^13C6-hydroxydiclofenac—is”, “inhibitor (Montelukast)” for “inhibitor (sulfaphenazole)”

Another data set in a line: Aqueous solubility. In kind it is physicochemical. The note with it: buffer pH 2.2, 24 h shaking, 2.5% DMSO; for solubility at 24 h: aqueous buffer, kinetic from dmso stock. The protocol:
Starting from a 10 mM DMSO stock solution aliquots are diluted with acetonitrile/water (1/1) or buffer, respectively. After 24 h of shaking, the solutions are filtrated and analyzed by LC-UV. The amount dissolved in buffer is compared to the amount in the acetonitrile solution.

Setting [3] is: 1321N1 cells stably expressing human GPR40, 1 h stimulation, read-out: EC50.
The mark [4] stands for this setting: head-to-head compilation, given as IC50, values equal the EC50 of Table 2, read-out: GPR40: IC50.

cytochrome P450 2C9-isoenzyme, sequence (P11712 whole entry): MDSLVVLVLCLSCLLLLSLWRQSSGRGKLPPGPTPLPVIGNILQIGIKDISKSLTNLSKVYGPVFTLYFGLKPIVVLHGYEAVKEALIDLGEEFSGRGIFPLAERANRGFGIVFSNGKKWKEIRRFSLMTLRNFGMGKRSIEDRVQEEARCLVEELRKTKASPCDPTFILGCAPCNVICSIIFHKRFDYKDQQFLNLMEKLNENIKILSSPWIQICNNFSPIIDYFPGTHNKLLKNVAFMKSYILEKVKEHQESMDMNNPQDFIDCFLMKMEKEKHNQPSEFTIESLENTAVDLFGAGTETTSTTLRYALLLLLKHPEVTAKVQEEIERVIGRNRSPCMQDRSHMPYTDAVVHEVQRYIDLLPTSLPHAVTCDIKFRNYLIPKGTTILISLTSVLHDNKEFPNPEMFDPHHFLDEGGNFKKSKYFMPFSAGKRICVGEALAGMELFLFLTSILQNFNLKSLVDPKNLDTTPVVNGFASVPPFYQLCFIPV
human GPR40 receptor, sequence (O14842 whole entry): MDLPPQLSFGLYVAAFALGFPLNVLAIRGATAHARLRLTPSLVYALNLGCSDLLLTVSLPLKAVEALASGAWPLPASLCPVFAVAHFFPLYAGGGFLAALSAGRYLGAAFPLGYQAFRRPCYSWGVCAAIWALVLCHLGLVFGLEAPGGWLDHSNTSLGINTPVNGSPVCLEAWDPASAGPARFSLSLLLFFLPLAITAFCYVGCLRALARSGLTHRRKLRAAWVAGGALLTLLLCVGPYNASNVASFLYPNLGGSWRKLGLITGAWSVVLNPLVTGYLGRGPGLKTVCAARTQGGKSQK
cytochrome P450 2C8-isoenzyme, sequence (P10632 whole entry): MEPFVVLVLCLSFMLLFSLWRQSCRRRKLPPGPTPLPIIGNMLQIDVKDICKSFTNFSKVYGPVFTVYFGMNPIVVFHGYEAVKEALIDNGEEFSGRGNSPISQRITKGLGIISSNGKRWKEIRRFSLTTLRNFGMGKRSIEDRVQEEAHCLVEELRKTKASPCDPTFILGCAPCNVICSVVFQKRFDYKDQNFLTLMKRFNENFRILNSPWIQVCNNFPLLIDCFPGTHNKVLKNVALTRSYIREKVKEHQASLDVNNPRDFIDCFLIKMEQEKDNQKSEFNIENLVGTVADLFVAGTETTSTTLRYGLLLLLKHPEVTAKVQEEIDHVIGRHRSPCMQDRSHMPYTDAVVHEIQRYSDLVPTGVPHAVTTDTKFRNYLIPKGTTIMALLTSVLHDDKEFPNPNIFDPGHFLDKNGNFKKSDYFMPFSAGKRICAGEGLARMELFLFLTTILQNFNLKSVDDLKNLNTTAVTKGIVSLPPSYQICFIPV

As a reminder, the IC50 is the concentration that gives 50% inhibition. What is called Solubility is the concentration that dissolves in the medium under given conditions. On to `N#CC1(c2ccccc2-c2ccc(F)c3c2CC[C@H]3Nc2ccc([C@H]3C[C@@H]3C(=O)O)nc2)CC1` (mixture of isomers) [Example 25], for which the IC50 in data set [1] amounted to 40 µM; in data set [2], 49 µM. In addition, the EC50 at human GPR40 receptor (setting [3]) amounted to 344 nM. The “Solubility at pH value 2.2” value in “Aqueous solubility” is on record as 110 μg/mL.
On the same counts, the results for `Cc1cc(O[C@H]2CCOC2)cc(C)c1-c1ccc(F)c2c1CC[C@H]2Nc1ccc([C@H]2C[C@@H]2C(=O)O)nc1` (mixture of isomers) [Example 33] are over 50 µM, 40 µM, 12 nM and 103 μg/mL.
For `Cc1cc(OCCC(C)(C)O)cc(C)c1-c1ccc(F)c2c1CC[C@H]2Nc1ccc(C2C[C@@H]2C(=O)O)nc1` (stereo partly drawn) [Example 1, trans-2-(5-{(R)-7-Fluoro-4-[4-(3-hydroxy-3-methyl-butoxy)-2,6-dimethyl-phenyl]-indan-1-ylamino}-pyridin-2-yl)-cyclopropanecarboxylic acid], at human GPR40 receptor (setting [3]), the EC50 worked out at 11 nM.
What is called solubility is the concentration that dissolves in the medium under given conditions. Higher therefore signals much dissolved substance. Regarding `Cc1cc(OCCC(C)(C)O)cc(C)c1-c1ccc(F)c2c1CC[C@H]2Nc1ccc([C@H]2C[C@@H]2C(=O)O)nc1` [Example 2, (1S,2S)-2-(5-{(R)-7-Fluoro-4-[4-(3-hydroxy-3-methyl-butoxy)-2,6-dimethyl-phenyl]-indan-1-ylamino}-pyridin-2-yl)-cyclopropanecarboxylic acid], the IC50 in data set [1] is over 50 µM; in data set [2], 20 µM. Also, the EC50 on human GPR40 receptor (setting [3]) and on human GPR40 receptor (setting [4]) was 4 nM in each case. This molecule also displayed a solubility at 24 h in the data set “Aqueous solubility” of 100 µg/mL (≈ 193 µM).
Consider `Cc1cc(OCCC(C)(C)O)cc(C)c1-c1ccc(F)c2c1CC[C@H]2Nc1ccc([C@@H]2C[C@H]2C(=O)O)nc1` [Example 3, (1R,2R)-2-(5-{(R)-7-Fluoro-4-[4-(3-hydroxy-3-methyl-butoxy)-2,6-dimethyl-phenyl]-indan-1-ylamino}-pyridin-2-yl)-cyclopropanecarboxylic acid], for which the EC50 at human GPR40 receptor (setting [3]) came to 107 nM.
`Cc1cc(OCCCS(C)(=O)=O)cc(C)c1-c1ccc(F)c2c1CC[C@H]2Nc1ccc([C@H]2C[C@@H]2C(=O)O)nc1` [Example 4, (1S,2S)-2-(5-{(R)-7-Fluoro-4-[4-(3-methanesulfonyl-propoxy)-2,6-dimethyl-phenyl]-indan-1-ylamino}-pyridin-2-yl)-cyclopropanecarboxylic acid]: the IC50 in data set [1] and in data set [2] was over 50 µM throughout. Besides, the EC50 at human GPR40 receptor (setting [3]) and on human GPR40 receptor (setting [4]) was 7 nM in each case. This molecule also registered a solubility at 24 h in the data set “Aqueous solubility” of 97 µg/mL (≈ 176 µM).
Turning to `Cc1cc(-c2nnn(C)n2)cc(C)c1-c1cccc2c1CC[C@H]2Nc1ccc([C@H]2C[C@@H]2C(=O)O)nc1` [Example 6, (1S,2S)-2-(5-{(R)-4-[2,6-Dimethyl-4-(2-methyl-2H-tetrazol-5-yl)-phenyl]-indan-1-ylamino}-pyridin-2-yl)-cyclopropanecarboxylic acid], the IC50 in data set [1] is over 50 µM; in data set [2], 29 µM. The EC50 at human GPR40 receptor (setting [3]) came out at 3 nM. The same molecule had a solubility at 24 h in “Aqueous solubility” of 68 µg/mL (≈ 141 µM).
With `Cc1cc(OCCC(C)(C)O)cc(C)c1-c1cccc2c1CC[C@H]2Nc1ccc([C@H]2C[C@@H]2C(=O)O)nc1` [Example 7, (1S,2S)-2-(5-{(R)-4-[4-(3-Hydroxy-3-methyl-butoxy)-2,6-dimethyl-phenyl]-indan-1-ylamino}-pyridin-2-yl)-cyclopropanecarboxylic acid], the IC50 in data set [1] and in data set [2] was over 50 µM in each case. Further, the EC50 on human GPR40 receptor (setting [3]) amounted to 5 nM. In “Aqueous solubility”, this molecule showed a solubility at 24 h of 84 µg/mL (≈ 168 µM).
Take `COc1ccc(-c2cccc3c2CC[C@H]3Nc2ccc([C@H]3C[C@@H]3C(=O)O)nc2)cc1F` [Example 8, (1S,2S)-2-{5-[(R)-4-(3-Fluoro-4-methoxy-phenyl)-indan-1-ylamino]-pyridin-2-yl}-cyclopropanecarboxylic acid]: the IC50 in data set [1] and in data set [2] was over 50 µM in each case. For the same molecule, the EC50 at human GPR40 receptor (setting [3]) came to 100 nM. Moreover, the solubility at 24 h in the data set “Aqueous solubility” is 62 µg/mL (≈ 148 µM).
For `COc1cnc(-c2ccc(-c3cccc4c3CC[C@H]4Nc3ccc([C@H]4C[C@@H]4C(=O)O)nc3)cc2)cn1` [Example 9, (1S,2S)-2-(5-{(R)-4-[4-(5-Methoxy-pyrazin-2-yl)-phenyl]-indan-1-ylamino}-pyridin-2-yl)-cyclopropanecarboxylic acid], the values for the IC50 in data set [1] and in data set [2] were over 50 µM and 20 µM, respectively. Moreover, the EC50 at human GPR40 receptor (setting [3]) was determined as 24 nM. The molecule further gave a solubility at 24 h in “Aqueous solubility” of under 1 µg/mL.
On to `Cc1nnc(-c2ccc(-c3cccc4c3CC[C@H]4Nc3ccc([C@H]4C[C@@H]4C(=O)O)nc3)cc2)o1` [Example 10, (1S,2S)-2-(5-{(R)-4-[4-(5-Methyl-[1,3,4]oxadiazol-2-yl)-phenyl]-indan-1-ylamino}-pyridin-2-yl)-cyclopropanecarboxylic acid], for which the EC50 at human GPR40 receptor (setting [3]) amounted to 146 nM.
`Cc1cc(OCCCS(C)(=O)=O)cc(C)c1-c1ccc(F)c2c1CC[C@H]2Oc1ccc([C@H]2C[C@@H]2C(=O)O)nc1` [Example 11 in WO 2013/178575, reference compound]: the IC50 stood at 17 µM in data set [1] and 12 µM in data set [2]. Further, the EC50 on human GPR40 receptor (setting [4]) is 8 nM.
For `Cc1cc(C(N)=O)cc(C)c1-c1ccc(F)c2c1CC[C@H]2Nc1ccc([C@H]2C[C@@H]2C(=O)O)nc1` [Example 11], the IC50 in data set [1] and in data set [2] was over 50 µM in each case. For the same molecule, on human GPR40 receptor (setting [3]), the EC50 was 30 nM. The “Solubility at pH value 2.2” value in the data set “Aqueous solubility” is listed as over 120 μg/mL.
Take `Cc1cc(O[C@@H]2CCOC2)cc(C)c1-c1ccc(F)c2c1CC[C@H]2Nc1ccc([C@H]2C[C@@H]2C(=O)O)nc1` [Example 12]: the IC50 in data set [1] was over 50 µM; in data set [2], 30 µM. At human GPR40 receptor (setting [3]), the EC50 came to 10 nM. In addition, the “Solubility at pH value 2.2” value in “Aqueous solubility” is 105 μg/mL.
On the same counts, the results for `Cc1cc(CO)cc(C)c1-c1ccc(F)c2c1CC[C@H]2Nc1ccc([C@H]2C[C@@H]2C(=O)O)nc1` [Example 13] are over 50 µM, 40 µM, 25 nM and 105 μg/mL.
As for `Cc1cc(C(=O)NCC(C)(C)O)cc(C)c1-c1ccc(F)c2c1CC[C@H]2Oc1ccc([C@H]2C[C@@H]2C(=O)O)cc1` [Example 15 in WO 2013/178575, reference compound], the IC50 turned out to be 31 µM in data set [1] and 10 µM in data set [2]. This molecule also returned a solubility at 24 h in the data set “Aqueous solubility” of under 1 µg/mL.
Consider `Cc1cc(OCC2(C)COC2)cc(C)c1-c1ccc(F)c2c1CC[C@H]2Nc1ccc([C@H]2C[C@@H]2C(=O)O)nc1` [Example 15], for which the results for the IC50 in data set [1] and in data set [2] were over 50 µM and 32 µM, respectively. For the same molecule, the EC50 at human GPR40 receptor (setting [3]) was 8 nM. In the data set “Aqueous solubility”, the “Solubility at pH value 2.2” value worked out at 120 μg/mL.
As for `Cc1cc(-c2nnn(C)n2)cc(C)c1-c1ccc(F)c2c1CC[C@H]2Nc1ccc([C@H]2C[C@@H]2C(=O)O)nc1` [Example 30], the IC50 is over 50 µM in data set [1] and 20 µM in data set [2]. Moreover, the EC50 on human GPR40 receptor (setting [3]) worked out at 3 nM.
For the molecule `Cc1cccc(C)c1-c1ccc(F)c2c1CC[C@H]2Oc1ccc(C2CC2C(=O)O)cc1` (stereo partly shown) [Example 33 in WO 2013/178575, reference compound], the IC50 in data set [1] was determined as 7 µM; in data set [2], 5 µM.
In the case of `Cc1c(C#N)cccc1-c1ccc(F)c2c1CC[C@H]2Oc1ccc([C@H]2C[C@@H]2C(=O)O)cc1` [Example 54 in WO 2013/178575, reference compound], the IC50 in data set [1] turned out to be 10 µM; in data set [2], 9 µM. Besides, the solubility at 24 h in the data set “Aqueous solubility” is under 1 µg/mL.
